Measurements published in patent publication US12692288B2, “Crystalline and liquid crystalline 25-hydroxy-cholest-5-en-3-sulfate sodium and methods for preparing same” (Medicis Pharmaceutical Corporation, priority 2019, dated 2026).

Tests used:
Type in all cases: physicochemical
[1] = Dynamic Vapor Sorption test (SMS DVS Intrinsic), Example 23; details: 25° C.
Procedure: Dynamic Vapor Sorption (DVS) was measured using an SMS (Surface Measurement Systems) DVS Intrinsic. [table]

[2] = Physical stability of forms on exposure to humidity, temperature or vacuum, by XRPD
Text: X-ray powder diffraction patterns were collected with a PANalytical X'Pert PRO MPD or PANalytical Empyrean diffractometer using an incident beam of Cu radiation produced using a long, fine-focus source. An elliptically graded multilayer mirror was used to focus Cu Kα x-rays through the specimen and onto the detector. […] A specimen of the sample was sandwiched between 3-μm-thick films and analyzed in transmission geometry. A beam-stop, short anti-scatter extension, and anti-scatter knife edge were used to minimize the background generated by air. Soller slits for the incident and diffracted beams were used to minimize broadening and asymmetry from axial divergence. Diffraction patterns were collected using a scanning position-sensitive detector (X'Celerator) located 240 mm from the specimen and Data Collector software v. 2.2b or 5.5. All images were produced with the instrument labeled as X'Pert PRO MPD regardless of the instrument used.
X-ray powder diffraction patterns were collected with a PANalytical X'Pert PRO MPD diffractometer using an incident beam of Cu Kα radiation produced using a long, fine-focus source and a nickel filter. The diffractometer was configured using the symmetric Bragg—Brentano geometry. […] A specimen of the sample was packed in a well. Anti-scatter slits were used to minimize the background generated by air. Soller slits for the incident and diffracted beams were used to minimize broadening from axial divergence. Diffraction patterns were collected using a scanning position-sensitive detector (X'Celerator) located 240 mm from the sample and Data Collector software v. 2.2b.

[3] = Water activity slurries in aqueous solvent mixtures, solid phase by XRPD
Text: The effect of water activity (aw) on the hydration state can be investigated through competitive water activity trituration experiments (slurries) in various aqueous solvent mixtures. The resulting solid phase can be characterized by x-ray powder diffraction. The experiments can establish the physically stable form at various aw. Water activity can also be related to relative humidity in that RH %=aw×100. Therefore, it is possible to directly relate the stability of an anhydrous/hydrate system in slurry experiments to solid-state stability. The slurry technique at controlled water activities can provide an accurate method of rapidly predicting the physically stable form in anhydrous/hydrate systems. […] The times, temperatures, and humidity are approximate. As with Table 1, the term “B” means birefringent when viewed by polarized light microscopy with cross polars.
Solutions were prepared by adding enough solids to a given solvent so that excess solids were present. The mixture was then agitated in a sealed vial at either ambient or elevated temperature. After a given amount of time, the solids were isolated for analysis.

[4] = Dynamic vapor sorption/desorption (DVS), VTI SGA-100; details: for form of material recovered after DVS, by XRPD: after sorption/desorption 5% to 95% RH
Procedure: Moisture sorption/desorption data were collected on a VTI SGA-100 Vapor Sorption Analyzer. NaCl and PVP were used as calibration standards. Samples were not dried prior to analysis. […] The equilibrium criterion used for analysis was less than 0.0100% weight change in 5 minutes with a maximum equilibration time of 3 hours. Data were not corrected for the initial moisture content of the samples.

[5] = Variable temperature XRPD (VT-XRPD)
Text: (§1) X-ray powder diffraction patterns were collected with a PANalytical X'Pert PRO MPD diffractometer using an incident beam of Cu Kα radiation produced using a long, fine-focus source and a nickel filter. The diffractometer was configured using the symmetric Bragg—Brentano geometry. Data were collected and analyzed using Data Collector software v. 2.2b. […] A specimen of the sample was packed in a nickel-coated copper well. Antiscatter slits were used to minimize the background generated by air scattering. Soller slits for the incident and diffracted beams were used to minimize broadening from axial divergence. Diffraction patterns were collected using a scanning position-sensitive detector (X'Celerator) located 240 mm from the sample.
An Anton Paar TTK 450 stage was used to collect in-situ x-ray powder diffraction patterns as a function of temperature. The sample was heated with a resistance heater located directly under the sample holder, and the temperature was monitored with a platinum-100 resistance sensor located in the specimen holder. The heater was powered and controlled by an Anton Paar TCU 100 interfaced with Data Collector software.

[6] = Variable humidity XRPD (VH-XRPD); details: for time to complete dehydration/conversion to Form XIII: exposure to 0% RH
Text: as §1, with “air.” for “air scattering.”, “sample and Data Collector software v. 2.2b.” for “sample.”
An Anton Paar temperature-humidity chamber (THC) was used to collect in-situ x-ray powder diffraction patterns as a function of humidity. The temperature of the specimen was controlled with a Peltier thermoelectric device located directly under the specimen holder and monitored with a platinum-100 resistance sensor located in the specimen holder. The thermoelectric device was powered and controlled by an Anton Paar TCU 50 interfaced with Data Collector software.
The humidity was generated with an RH-200 manufactured by VTI Inc. and carried by a flow of nitrogen gas. The humidity and temperature were monitored by a Rotronic HygroClip sensor located next to the specimen inside the THC.

[7] = from 5 to 25% RH, screening material, mixture of Form I and Form II
[8] = from 25 to 85% RH, screening material, mixture of Form I and Form II

C[C@H](CCCC(C)(C)O)[C@H]1CCC2C3CC=C4C[C@@H](OS(=O)(=O)[O-])CC[C@]4(C)C3CC[C@@]21C.[Na+] (stereo partly drawn) [25HC3S sodium, Sodium [(3S,10R,13R,17R)-17-[(1R)-5-hydroxy-1,5-dimethyl-hexyl]-10,13-dimethyl-2,3,4,7,8,9,11,12,14,15,16,17-dodecahydro-1H-cyclopenta[a]phenanthren-3-yl] sulfate]
hygroscopicity (DVS test) [1]: hygroscopic
moisture reversibly absorbed ([1]; below 30% RH): 7.0%
water absorbed ([1]; by 95% RH): 8.5%
form after humidity exposure, by XRPD ([2]; 75% RH for 10 days, screening material, mixture of Form I and Form II): predominately Form I and two additional peaks near 4.4°2θ and 8.8°2θ
form after heat exposure, by XRPD ([2]; briefly exposed to 130° C., screening material, mixture of Form I and Form II): mixture of Forms I, II, and XIII
Result (form) of water activity slurry ([3]; 0.73 aw, 94:06 ACN/H2O, 8 days, approximately room temperature): I +
Result (form) of water activity slurry ([3]; combination of samples from 0.5 aw and 0.38 aw, 56 days, filtered and dried under N2 for 30 min.): I +
form of material recovered after DVS, by XRPD [4]: predominantly Form I with an additional peak near 8.8°
water corresponding to weight gain (DVS) [4, 7]: 1.5 mol/mol water
weight gain (DVS) [4, 7]: approximately 5 wt %
water corresponding to weight gain (DVS) [4, 8]: 1.8 mol/mol water
weight gain (DVS) [4, 8]: ~6 wt %
weight gain (DVS) ([4]; from 85 to 95% RH): ~6 wt %
hygroscopicity (DVS isotherm) ([4]; screening material, mixture of Form I and Form II): hygroscopic

C[C@H](CCCC(C)(C)O)[C@H]1CC[C@H]2[C@@H]3CC=C4C[C@@H](OS(=O)(=O)[O-])CC[C@]4(C)[C@H]3CC[C@]12C.[Na+] [Form I, 25HC3S sodium]
temperature by which decomposition product trisodium hydrogen disulfate, Na3H(SO4)2, was evident [5]: ≤ 170 °C
form shown after dehydration by heating ([5]; heating to 170° C. and then dropping to 135° C.): Form XIII
behaviour upon exposure to 0% RH ([6]; 0% RH): dehydrate within minutes to Form XIII
time to complete dehydration/conversion to Form XIII [6]: 20 min
hygroscopicity [2]: hygroscopic
form change on drying ([2]; exposure to either 0% RH or 70° C. under vacuum): dehydrated Form I to Form XIII
water activity above which Form I is believed to form liquid crystal Form V [3]: above 0.73 aw

C[C@H](CCCC(C)(C)O)[C@H]1CC[C@H]2[C@@H]3CC=C4C[C@@H](OS(=O)(=O)[O-])CC[C@]4(C)[C@H]3CC[C@]12C.[Na+] [Form II, 25HC3S sodium]
form observed by XRPD at elevated temperature ([5]; 135° C.): still observed
form change in variable humidity XRPD ([6]; ambient temperature, 0% to 85% RH): a form change did not occur
relative humidity of exposure at which the form converts to Form V [2]: ≥ 75 % RH
time to conversion to Form V ([2]; exposure to 75% RH): up to 35 days
form stability by XRPD ([2]; stored at 0% RH for up to 35 days): remained unchanged
form stability by XRPD ([2]; under dry nitrogen for up to 4 days): remained unchanged
water accommodated in fully hydrated state ([4]; DVS sorption isotherm at 85% RH (FIG. 16)): approximately 3 mol/mol of water
form of material recovered after DVS, by XRPD [4]: mixture of Form II and Form V
water corresponding to weight gain (DVS) ([4]; from 5 to 55% RH): 1 mol/mol water
weight gain (DVS) ([4]; from 5 to 55% RH): approximately 3.5 wt %
water corresponding to weight gain (DVS) ([4]; from 55 to 85% RH): 2 mol/mol water
weight gain (DVS) ([4]; from 55 to 85% RH): ~7 wt %
weight gain (DVS) ([4]; from 85 to 95% RH): ~7 wt %

C[C@H](CCCC(C)(C)O)[C@H]1CC[C@H]2[C@@H]3CC=C4C[C@@H](OS(=O)(=O)[O-])CC[C@]4(C)[C@H]3CC[C@]12C.[Na+] [Form III, 25HC3S sodium]
form change on heating ([2]; 58° C. and vacuum overnight, or 130° C.): desolvates to another anhydrous form, Form IX
form change at ambient conditions [2]: desolvates to Form II

C[C@H](CCCC(C)(C)O)[C@H]1CC[C@H]2[C@@H]3CC=C4C[C@@H](OS(=O)(=O)[O-])CC[C@]4(C)[C@H]3CC[C@]12C.[Na+] [Form V, 25HC3S sodium]
physical stability by XRPD ([2]; exposure to 55° C. and vacuum for 1 day): remained Form V
physical stability by XRPD ([2]; storage at ambient conditions for 25 days): no changes observed
water activity of aqueous solvent mixture slurries from which the form resulted [3]: above 0.73 aw

C[C@H](CCCC(C)(C)O)[C@H]1CC[C@H]2[C@@H]3CC=C4C[C@@H](OS(=O)(=O)[O-])CC[C@]4(C)[C@H]3CC[C@]12C.[Na+] [Form XIII, 25HC3S sodium]
relative humidity before which Form XIII hydrates to Form I ([6]; increasing humidity): < 25 % RH
form change at ambient conditions [2]: quickly hydrates to Form I

C[C@H](CCCC(C)(C)O)[C@H]1CC[C@H]2[C@@H]3CC=C4C[C@@H](OS(=O)(=O)[O-])CC[C@]4(C)[C@H]3CC[C@]12C.[Na+] [Forms I+XIII, 25HC3S sodium]
time to complete dehydration/conversion to Form XIII [6]: ≤ 20 min
form change on exposure to humidity ([6]; isolated at 15% RH, exposed to 25% RH, held minimum one hour): converted to Form I
